Values joined by “and” are separate entries in the source; they are usually repeats but may differ in a detail not shown here. Equal values may be shown once.
Test: Cell-based activity under Prompt Conditions: Cell-based activity under Prompt Conditions. Rat or human NHE3-mediated Na+-dependent H+ antiport was measured using a modification of the pH sensitive dye method originally reported by Paradiso (PNAS USA. 81:7436-7440, 1984). Opossum kidney (OK) cells were obtained from the ATCC and propagated per their instructions. The rat NHE3 gene (GenBank M85300) or the human NHE3 gene (GenBank NM_004174.1) was introduced into OK cells via electroporation, and cells were seeded into 96 well plates and grown overnight. Medium was aspirated from the wells, cells were washed twice with NaCl-HEPES buffer (100 mM NaCl, 50 mM HEPES, 10 mM glucose, 5 mM KCl, 2 mM CaCl2, 1 mM MgCl2, pH 7.4), then incubated for 30 min at room temperature with NH4Cl-HEPES buffer (20 mM NH4Cl, 80 mM NaCl, 50 mM HEPES, 5 mM KCl, 2 mM CaCl2, 1 mM MgCl2, pH 7.4) containing 5 μM bis(acetoxymethyl) 3,3′-(3′,6′-bis(acetoxymethoxy)-5-((acetoxymethoxy)carbonyl)-3-oxo-3H-spiro[isobenzofuran-1,9′-xanthene]-2′,7′-diyl)dipropanoate (BCECF-AM).Cells were washed twice with Ammonium free, Na+-free HEPES (100 mM choline, 50 mM HEPES, 10 mM glucose, 5 mM KCl, 2 mM CaCl2, 1 mM MgCl2, pH 7.4) and incubated in the same buffer for 10 minutes at room temperature to lower intracellular pH. […] Initial rates were plotted as the average 2 or more replicates, and pIC50 values were estimated using GraphPad Prism.

SMILES | IC50
CN1Cc2c(Cl)cc(Cl)cc2C(c2cccc(S(N)(=O)=O)c2)C1 (configuration not stated) | 251 nM
NCCOCCOCCN1CCN(c2ccc(-c3nc(N=C(N)N)nc4ccc(Cl)cc34)cc2)CC1 | 100 nM
N=C(N)Nc1nc(-c2ccc(N3CCN(CCOCCOCCOCCNC(=O)NCCOCCOCCNC(=O)NCCOCCOCCOCCN4CCN(c5ccc(-c6nc(NC(=N)N)nc7ccc(Cl)cc67)cc5)CC4)CC3)cc2)c2cc(Cl)ccc2n1 | 50.1 nM
NCCOCCOCCNS(=O)(=O)c1ccc(O[C@H]2c3ccccc3C[C@@H]2N2CCCCC2)cc1 | 447 nM
CN1Cc2c(Cl)cc(Cl)cc2[C@H](c2cccc(S(=O)(=O)NCCOCCOCCOCCNC(=O)CN3CCN(CC(=O)NCCOCCOCCOCCNS(=O)(=O)c4cccc([C@@H]5CN(C)Cc6c(Cl)cc(Cl)cc65)c4)CCN(CC(=O)NCCOCCOCCOCCNS(=O)(=O)c4cccc([C@@H]5CN(C)Cc6c(Cl)cc(Cl)cc65)c4)CCN(CC(=O)NCCOCCOCCOCCNS(=O)(=O)c4cccc([C@@H]5CN(C)Cc6c(Cl)cc(Cl)cc65)c4)CC3)c2)C1 | 501 nM
CN1Cc2c(Cl)cc(Cl)cc2[C@H](c2cccc(S(=O)(=O)NCCOCCOCCOCCNC(=O)CN(CC(=O)NCCOCCOCCOCCNS(=O)(=O)c3cccc([C@@H]4CN(C)Cc5c(Cl)cc(Cl)cc54)c3)CC(=O)NCCOCCOCCOCCNS(=O)(=O)c3cccc([C@@H]4CN(C)Cc5c(Cl)cc(Cl)cc54)c3)c2)C1 | 79.4 nM
C/C(=C\c1cc(F)c(Oc2ccc(S(=O)(=O)NCCOCCOCCOCCNC(=O)N3CCN(C(=O)NCCOCCOCCOCCNS(=O)(=O)c4ccc(Oc5c(F)cc(/C=C(\C)C(=O)N=C(N)N)cc5F)cc4)CC3)cc2)c(F)c1)C(=O)N=C(N)N | 20 nM
NC(N)=Nc1nc(-c2ccc(N3CCN(CCOCCOCCNC(=O)[C@H](O)[C@@H](O)C(=O)NCCOCCOCCN4CCN(c5ccc(-c6nc(N=C(N)N)nc7ccc(Cl)cc67)cc5)CC4)CC3)cc2)c2cc(Cl)ccc2n1 | 79.4 nM
NCCOCCOCCN1CCN(c2cccc(-c3nc(N=C(N)N)nc4ccc(Cl)cc34)c2)CC1 | 200 nM
N=C(N)Nc1nc(-c2ccc(S(=O)(=O)NCCOCCOCCN)cc2)c2cc(Cl)ccc2n1 | 126 nM
N=C(N)Nc1nc(-c2cccc(S(=O)(=O)NCCOCCOCCN)c2)c2cc(Cl)ccc2n1 | 501 nM
C/C(=C\c1cc(F)c(Oc2ccc(S(=O)(=O)NCCOCCOCCOCCN)cc2)c(F)c1)C(=O)N=C(N)N | 126 nM
NCCOCCOCCOc1ccc(-c2nc(N=C(N)N)nc3ccc(Cl)cc23)cc1 | 112 nM
N=C(N)Nc1nc(-c2cccc(S(=O)(=O)NCCOCCOCCOCCN)c2)c2cc(Cl)ccc2n1 | 794 nM
C/C(=C\c1cc(F)c(Oc2ccc(S(=O)(=O)NCCOCCOCCOCCNC(=O)OCCOCCOCCOC(=O)NCCOCCOCCOCCNS(=O)(=O)c3ccc(Oc4c(F)cc(/C=C(\C)C(=O)N=C(N)N)cc4F)cc3)cc2)c(F)c1)C(=O)N=C(N)N | 31.6 nM
CN(CC(=O)NCCOCCOCCNS(=O)(=O)c1ccc(O[C@H]2c3ccccc3C[C@@H]2N2CCCCC2)cc1)CC(=O)NCCOCCOCCNS(=O)(=O)c1ccc(O[C@H]2c3ccccc3C[C@@H]2N2CCCCC2)cc1 | 35.5 nM
N=C(N)Nc1nc(-c2ccc(OCCOCCOCCOCCN)cc2)c2cc(Cl)ccc2n1 | 31.6 nM
NCCOCCOCCOCCN1CCN(c2ccc(-c3nc(N=C(N)N)nc4ccc(Cl)cc34)cc2)CC1 | 56.2 nM and 126 nM
CN1Cc2c(Cl)cc(Cl)cc2[C@H](c2cccc(S(=O)(=O)NCCOCCOCCOCCN)c2)C1 | 45.7 nM
C/C(=C\c1cc(F)c(Oc2ccc(S(=O)(=O)NCCOCCOCCOCCNC(=O)CN(CCN(CC(=O)O)CC(=O)NCCOCCOCCOCCNS(=O)(=O)c3ccc(Oc4c(F)cc(/C=C(\C)C(=O)N=C(N)N)cc4F)cc3)CC(=O)O)cc2)c(F)c1)C(=O)N=C(N)N | 31.6 nM
C/C(=C\c1cc(F)c(Oc2ccc(S(=O)(=O)NCCOCCOCCOCCNC(=O)N(C)CCCCN(C)C(=O)NCCOCCOCCOCCNS(=O)(=O)c3ccc(Oc4c(F)cc(/C=C(\C)C(=O)N=C(N)N)cc4F)cc3)cc2)c(F)c1)C(=O)N=C(N)N | 15.8 nM
CN1Cc2c(Cl)cc(Cl)cc2[C@H](c2cccc(S(=O)(=O)NCCOCCOCCOCCNC(=O)c3cc(C(=O)NCCOCCOCCOCCNS(=O)(=O)c4cccc([C@@H]5CN(C)Cc6c(Cl)cc(Cl)cc65)c4)cc(C(=O)NCCOCCOCCOCCNS(=O)(=O)c4cccc([C@@H]5CN(C)Cc6c(Cl)cc(Cl)cc65)c4)c3)c2)C1 | 126 nM
CN1Cc2c(Cl)cc(Cl)cc2[C@H](c2cccc(S(=O)(=O)NCCOCCOCCOCCNC(=O)NCCN(CCNC(=O)NCCOCCOCCOCCNS(=O)(=O)c3cccc([C@@H]4CN(C)Cc5c(Cl)cc(Cl)cc54)c3)CCNC(=O)NCCOCCOCCOCCNS(=O)(=O)c3cccc([C@@H]4CN(C)Cc5c(Cl)cc(Cl)cc54)c3)c2)C1 | 126 nM
CN1Cc2c(Cl)cc(Cl)cc2[C@@H](c2cccc(S(=O)(=O)NCCOCCOCCNC(=O)NCCCCNC(=O)NCCOCCOCCNS(=O)(=O)c3cccc([C@@H]4CN(C)Cc5c(Cl)cc(Cl)cc54)c3)c2)C1 | 50.1 nM and < 10000 nM
C/C(=C\c1cc(F)c(Oc2ccc(S(=O)(=O)NCCOCCOCCOCCNC(=O)[C@H](O)[C@@H](O)C(=O)NCCOCCOCCOCCNS(=O)(=O)c3ccc(Oc4c(F)cc(/C=C(\C)C(=O)N=C(N)N)cc4F)cc3)cc2)c(F)c1)C(=O)N=C(N)N | 126 nM
C/C(=C\c1cc(F)c(Oc2ccc(S(=O)(=O)NCCOCCOCCOCCNCc3ccc(CNCCOCCOCCOCCNS(=O)(=O)c4ccc(Oc5c(F)cc(/C=C(\C)C(=O)N=C(N)N)cc5F)cc4)cc3)cc2)c(F)c1)C(=O)N=C(N)N | 200 nM

SMILES | IC50
C/C(=C\c1cc(F)c(Oc2ccc(S(=O)(=O)NCCOCCOCCOCCNC(=O)NCCCCNC(=O)NCCOCCOCCOCCNS(=O)(=O)c3ccc(Oc4c(F)cc(/C=C(\C)C(=O)N=C(N)N)cc4F)cc3)cc2)c(F)c1)C(=O)N=C(N)N | 31.6 nM
C/C(=C\c1cc(F)c(Oc2ccc(S(=O)(=O)NCCOCCOCCOCCNC(=O)NCCOCCOCCNC(=O)NCCOCCOCCOCCNS(=O)(=O)c3ccc(Oc4c(F)cc(/C=C(\C)C(=O)N=C(N)N)cc4F)cc3)cc2)c(F)c1)C(=O)N=C(N)N | 100 nM
NCCOCCOCCOc1cccc(-c2nc(N=C(N)N)nc3ccc(Cl)cc23)c1 | 224 nM
COCCNS(=O)(=O)c1cccc(C2CN(C)Cc3c(Cl)cc(Cl)cc32)c1 (configuration not stated) | 200 nM
C/C(=C\c1cc(F)c(Oc2ccc(S(=O)(=O)NCCOCCOCCOCCNC(=O)COCC(=O)NCCOCCOCCOCCNS(=O)(=O)c3ccc(Oc4c(F)cc(/C=C(\C)C(=O)N=C(N)N)cc4F)cc3)cc2)c(F)c1)C(=O)N=C(N)N | 50.1 nM
CN1Cc2c(Cl)cc(Cl)cc2[C@H](c2cccc(S(=O)(=O)NCCOCCOCCOCCNC(=O)COCC(=O)NCCOCCOCCOc3cccc(-c4nc(NC(=N)N)nc5ccc(Cl)cc45)c3)c2)C1 | 141 nM
COCCNC(=O)CN(C)CC(=O)NCCOCCOCCNC(=O)NCCOCCOCCOCCOc1ccc(-c2nc(NC(=N)N)nc3ccc(Cl)cc23)cc1 | 12.6 nM
CCOCCOCCOCCNC(=O)CN(C)CC(=O)NCCOCCOCCOCCNS(=O)(=O)c1ccc(O[C@H]2c3ccccc3C[C@@H]2N2CCCCC2)cc1 | 44.7 nM
CCOCCOCCOCCOCCC(=O)NCCOCCOCCNS(=O)(=O)c1ccc(OC2c3ccccc3C[C@@H]2N2CCCCC2)cc1 (some centres not stated) | 50.1 nM
CCOCCOCCOCCOCCC(=O)NCCOCCOCCOCCNS(=O)(=O)c1ccc(O[C@H]2c3ccccc3C[C@@H]2N2CCCCC2)cc1 | 35.5 nM
CNC(=O)CN(CCN(CC(=O)O)CC(=O)NCCOCCOCCNC(=O)NCCOCCOCCOCCOc1cccc(-c2nc(NC(=N)N)nc3ccc(Cl)cc23)c1)CC(=O)O | 20 nM
COCCOCCOCCOCCC(=O)NCCOCCOCCOCCN1CCN(c2cccc(-c3nc(NC(=N)N)nc4ccc(Cl)cc34)c2)CC1 | 50.1 nM
CCOCCOCCOCCNC(=O)CN(CCN(CC(=O)O)CC(=O)NCCOCCOCCOCCNS(=O)(=O)c1ccc(O[C@H]2c3ccccc3C[C@@H]2N2CCCCC2)cc1)CC(=O)O | 22.4 nM
COCCNC(=O)CN(C)CC(=O)NCCOCCOCCNC(=O)NCCOCCOCCOCCN1CCN(c2ccc(-c3nc(N=C(N)N)nc4ccc(Cl)cc34)cc2)CC1 | 31.6 nM
COCCNC(=O)CN(C)CC(=O)NCCOCCOCCNC(=O)NCCOCCOCCOCCN1CCN(c2cccc(-c3nc(NC(=N)N)nc4ccc(Cl)cc34)c2)CC1 | 20 nM
CCNC(=O)CCOCCOCCOCCOCCOCCC(=O)NCCOCCOCCOCCN1CCN(c2ccc(-c3nc(NC(=N)N)nc4ccc(Cl)cc34)cc2)CC1 | 20.9 nM
COCCOCCOCCC(=O)NCCOCCOCCOCCN1CCN(c2cccc(-c3nc(NC(=N)N)nc4ccc(Cl)cc34)c2)CC1 | 135 nM
CCCOCNC(=O)NCCCCNC(=O)NCCOCCOCCNC(=O)NCCOCCOCCN1CCN(c2cccc(-c3nc(N=C(N)N)nc4ccc(Cl)cc34)c2)CC1 | 25.1 nM
CCOCCOCCOCCNC(=O)[C@H](O)[C@@H](O)C(=O)NCCOCCOCCOCCNS(=O)(=O)c1ccc(O[C@H]2c3ccccc3C[C@@H]2N2CCCCC2)cc1 | 20 nM
CN(CCN(CC(=O)O)CC(=O)NCCOCCOCCNC(=O)NCCOCCOCCOCCN1CCN(c2ccc(-c3nc(N=C(N)N)nc4ccc(Cl)cc34)cc2)CC1)CC(=O)O | 15.8 nM
CN(CCN(CC(=O)O)CC(=O)NCCOCCOCCNC(=O)NCCOCCOCCOCCOc1ccc(-c2nc(NC(=N)N)nc3ccc(Cl)cc23)cc1)CC(=O)O | 10 nM
CCCCNC(=O)NCCOCCOCCNC(=O)NCCOCCOCCOCCOc1ccc(-c2nc(NC(=N)N)nc3ccc(Cl)cc23)cc1 | 25.1 nM
CN(C)CC(=O)NCCOCCOCCNC(=O)NCCOCCOCCN1CCN(c2cccc(-c3nc(NC(=N)N)nc4ccc(Cl)cc34)c2)CC1 | 39.8 nM
CCOCCOCCOCCNC(=O)NCCCCNC(=O)NCCOCCOCCOCCNS(=O)(=O)c1ccc(O[C@H]2c3ccccc3C[C@@H]2N2CCCCC2)cc1 | 39.8 nM
COCCNC(=O)CN(C)CC(=O)NCCOCCOCCNC(=O)NCCOCCOCCOCCOc1cccc(-c2nc(NC(=N)N)nc3ccc(Cl)cc23)c1 | 31.6 nM
CCNC(=O)CN(C)CC(=O)NCCOCCOCCOCCNS(=O)(=O)c1ccc(Oc2c(F)cc(/C=C(\C)C(=O)N=C(N)N)cc2F)cc1 | 316 nM
